Data as given in US9586951B2 (FUJIFILM Corporation, priority 2013, dated 2017).

Assays:
ATM = target: T1, ATM (Homo sapiens, UniProt Q13315); experiment: ATM inhibition test (phosphorylation of Chk2 generated by ionizing radiation, AlphaScreen SureFire); format: cell-based; details: phosphorylated Chk2 in NCI-H460 cells, ionizing radiation 8Gy, 1 hour after test compound treatment; read-out: ATM inhibitory activity
T1 construct: detecting phosphorylation of Chk2 in a human non-small cell lung cancer cell line NCI-H460 (ATCC company); host or cells: NCI-H460 human non-small cell lung cancer cells
T1 sequence (Q13315 whole entry): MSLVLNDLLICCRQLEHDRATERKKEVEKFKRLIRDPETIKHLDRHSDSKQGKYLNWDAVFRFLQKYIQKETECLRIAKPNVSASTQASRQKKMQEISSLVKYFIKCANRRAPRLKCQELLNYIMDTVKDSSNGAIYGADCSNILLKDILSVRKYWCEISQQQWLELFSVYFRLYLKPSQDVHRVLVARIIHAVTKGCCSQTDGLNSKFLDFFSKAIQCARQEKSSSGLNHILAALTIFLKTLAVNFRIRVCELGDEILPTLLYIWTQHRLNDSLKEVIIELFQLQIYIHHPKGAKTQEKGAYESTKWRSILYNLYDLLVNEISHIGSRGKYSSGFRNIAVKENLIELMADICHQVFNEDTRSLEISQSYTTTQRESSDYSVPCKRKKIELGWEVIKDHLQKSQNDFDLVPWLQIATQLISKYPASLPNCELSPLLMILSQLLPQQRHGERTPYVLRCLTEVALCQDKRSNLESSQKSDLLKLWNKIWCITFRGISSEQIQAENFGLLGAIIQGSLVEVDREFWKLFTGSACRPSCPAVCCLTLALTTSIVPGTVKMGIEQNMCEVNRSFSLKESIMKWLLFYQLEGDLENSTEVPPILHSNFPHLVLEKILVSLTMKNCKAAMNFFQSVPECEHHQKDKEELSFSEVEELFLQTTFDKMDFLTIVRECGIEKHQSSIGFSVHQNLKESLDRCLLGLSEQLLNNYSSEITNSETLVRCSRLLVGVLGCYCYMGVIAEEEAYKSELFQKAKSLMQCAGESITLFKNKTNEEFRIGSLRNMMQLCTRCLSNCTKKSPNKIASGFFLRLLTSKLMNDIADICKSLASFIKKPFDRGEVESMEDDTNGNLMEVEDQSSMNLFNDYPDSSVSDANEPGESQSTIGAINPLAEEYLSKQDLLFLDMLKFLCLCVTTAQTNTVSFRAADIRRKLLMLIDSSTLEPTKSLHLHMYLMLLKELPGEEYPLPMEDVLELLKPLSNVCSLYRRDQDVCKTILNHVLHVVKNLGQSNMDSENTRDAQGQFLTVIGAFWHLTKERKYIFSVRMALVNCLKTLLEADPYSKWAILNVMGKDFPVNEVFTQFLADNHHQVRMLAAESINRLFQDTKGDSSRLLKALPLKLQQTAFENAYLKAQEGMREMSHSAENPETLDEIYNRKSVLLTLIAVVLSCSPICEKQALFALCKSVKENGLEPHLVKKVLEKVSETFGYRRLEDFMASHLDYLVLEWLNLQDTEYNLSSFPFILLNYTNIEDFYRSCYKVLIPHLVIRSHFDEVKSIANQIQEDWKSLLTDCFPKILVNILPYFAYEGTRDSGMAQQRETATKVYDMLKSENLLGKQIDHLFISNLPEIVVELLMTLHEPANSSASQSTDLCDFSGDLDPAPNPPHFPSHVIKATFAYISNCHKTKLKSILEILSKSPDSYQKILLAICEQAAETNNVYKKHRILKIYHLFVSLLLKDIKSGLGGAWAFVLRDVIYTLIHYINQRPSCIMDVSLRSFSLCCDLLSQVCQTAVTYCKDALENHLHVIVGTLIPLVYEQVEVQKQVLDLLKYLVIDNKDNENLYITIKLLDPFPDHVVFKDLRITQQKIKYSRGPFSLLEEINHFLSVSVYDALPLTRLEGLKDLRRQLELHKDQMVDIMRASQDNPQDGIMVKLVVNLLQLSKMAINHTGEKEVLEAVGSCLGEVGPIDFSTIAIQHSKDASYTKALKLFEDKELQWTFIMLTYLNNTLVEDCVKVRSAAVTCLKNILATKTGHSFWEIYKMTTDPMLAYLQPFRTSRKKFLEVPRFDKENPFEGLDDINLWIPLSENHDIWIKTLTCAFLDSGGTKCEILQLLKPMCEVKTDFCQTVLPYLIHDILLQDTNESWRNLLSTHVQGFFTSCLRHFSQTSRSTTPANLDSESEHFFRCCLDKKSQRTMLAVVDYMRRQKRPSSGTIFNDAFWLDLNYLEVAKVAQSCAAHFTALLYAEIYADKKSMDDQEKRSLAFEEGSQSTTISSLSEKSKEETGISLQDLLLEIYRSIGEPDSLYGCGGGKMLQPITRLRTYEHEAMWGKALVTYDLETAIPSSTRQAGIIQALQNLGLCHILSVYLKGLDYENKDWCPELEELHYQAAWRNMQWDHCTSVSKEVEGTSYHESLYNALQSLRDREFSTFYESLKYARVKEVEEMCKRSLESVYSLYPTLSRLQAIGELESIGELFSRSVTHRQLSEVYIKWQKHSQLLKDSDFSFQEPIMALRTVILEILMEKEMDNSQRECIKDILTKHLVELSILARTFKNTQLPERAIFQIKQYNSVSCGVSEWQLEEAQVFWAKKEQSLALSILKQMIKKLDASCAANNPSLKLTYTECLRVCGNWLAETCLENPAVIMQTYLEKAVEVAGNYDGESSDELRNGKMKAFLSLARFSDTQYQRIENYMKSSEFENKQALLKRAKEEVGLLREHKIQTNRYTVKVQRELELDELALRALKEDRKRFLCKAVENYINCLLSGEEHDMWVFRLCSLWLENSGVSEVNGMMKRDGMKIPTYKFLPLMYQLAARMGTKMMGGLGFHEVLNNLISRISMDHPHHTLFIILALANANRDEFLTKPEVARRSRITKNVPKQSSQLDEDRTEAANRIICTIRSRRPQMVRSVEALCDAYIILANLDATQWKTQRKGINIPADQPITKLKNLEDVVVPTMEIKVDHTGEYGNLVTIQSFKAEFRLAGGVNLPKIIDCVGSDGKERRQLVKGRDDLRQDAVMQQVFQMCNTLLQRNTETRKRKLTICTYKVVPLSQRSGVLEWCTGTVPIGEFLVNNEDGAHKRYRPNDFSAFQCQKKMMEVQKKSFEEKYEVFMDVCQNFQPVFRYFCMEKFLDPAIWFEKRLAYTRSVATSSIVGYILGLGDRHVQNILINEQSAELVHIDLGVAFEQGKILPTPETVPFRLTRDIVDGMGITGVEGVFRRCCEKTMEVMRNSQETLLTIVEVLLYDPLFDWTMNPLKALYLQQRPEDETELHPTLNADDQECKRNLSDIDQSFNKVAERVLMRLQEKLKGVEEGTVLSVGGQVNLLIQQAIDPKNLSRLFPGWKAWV
Summary of the method: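 Human NCI-H460 lung cancer cells were treated with compound for 1 h, then irradiated at 8Gy and incubated 1 h at 37° C. Phospho-Chk2 was quantified by AlphaScreen SureFire; inhibition % was normalised between irradiated untreated and non-irradiated untreated wells.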

[1] = tested on: human non-small cell lung cancer cell line NCI-H460; experiment: Cell proliferation inhibition test by sensitivity-enhancing to ionizing radiation (Cell Titer Glo); format: cell-based; details: concentration in which SER became 2, NCI-H460 cells, ionizing radiation 2 Gy, cultured 120 hour
Summary of the method: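 Cells seeded at 2×10^3 cells/mL in RPMI-1640 with 10% FBS; after 24 h, compound added (0.1% DMSO), and 30 min later half the plates irradiated at 2 Gy. After 120 hour at 37° C, viability by Cell Titer Glo luminescence; SER2 is the concentration giving SER of 2 by sigmoidal fit.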

SMILES | IC50 (ATM) | SER2 (concentration at which the radiation sensitivity-enhancement ratio reaches 2) ([1]; Homo sapiens, NCI-H460, 120 h) | SER2 (concentration at which the radiation sensitivity-enhancement ratio reaches 2) [1]
Cc1cnc(C(CF)Nc2ccc3c(c2)Sc2cccc(-c4cc(N5CCOCC5)cc(=O)[nH]4)c2S3)nc1 (stereo not shown) [Example 1-12-93, 6-(7-((2-Fluoro-1-(5-methylpyrimidin-2-yl)ethyl)amino)thianthren-1-yl)-4-morpholino pyridin-2(1H)-one] | < 100 nM | 100 to 500 nM | 
O=c1cc(N2CCOCC2)cc(-c2cccc3c2Oc2ccc(NC4CCN(CCc5ccccc5)CC4)cc2S3)[nH]1 [Example 4-10, 4-Morpholino-6-(8-((1-phenethylpiperidin-4-yl)amino)phenoxathiin-4-yl)pyridin-2(1H)-one] | < 100 nM | 100 to 500 nM | 
CC(CCN1CCOCC1)Nc1ccc2c(c1)Sc1cccc(-c3cc(N4CCOCC4)cc(=O)[nH]3)c1S2 (stereo not shown) [Example 1-42-1, 4-Morpholino-6-(7-((4-morpholinobutan-2-yl)amino)thianthren-1-yl)pyridin-2(1H)-one] | < 100 nM | 100 to 500 nM | 
Cc1cnc(C(C)Nc2ccc3c(c2)Sc2cccc(-c4cc(N5CCOCC5)cc(=O)[nH]4)c2S3)cn1 (single isomer, unassigned) [Example 1-12-137-1, 6-(7-((1-(5-methylpyrazin-2-yl)ethyl)amino)thianthren-1-yl)-4-morpholinopyridin-2(1H)-one] | < 100 nM | < 100 nM | 
CC(Nc1ccc2c(c1)Sc1cccc(-c3cc(N4CCOCC4)cc(=O)[nH]3)c1S2)c1cc(C#N)ncn1 (single isomer, unassigned) [Example 1-12-146-1, 6-(1-((6-(4-morpholino-6-oxo-1,6-dihydropyridin-2-yl)thianthren-2-yl)amino)ethyl)pyrimidine-4-carbonitrile] | < 100 nM | 100 to 500 nM | 
Cc1ccc(C(CCC2OCCCO2)Nc2ccc3c(c2)Sc2cccc(-c4cc(N5CCOCC5)cc(=O)[nH]4)c2S3)nc1 (stereo not shown) [Example 1-12-131, 6-(7-((3-(1,3-Dioxan-2-yl)-1-(5-methylpyridin-2-yl)propyl)amino)thianthren-1-yl)-4-morpholino pyridin-2 (1H)-one] | < 100 nM | 100 to 500 nM | 
COCCCC(Nc1ccc2c(c1)Sc1cccc(-c3cc(N4CCOCC4)cc(=O)[nH]3)c1S2)c1ccc(C)cn1 (stereo not shown) [Example 1-12-130, 6-(7-((4-Methoxy-1-(5-methylpyridin-2-yl)butyl)amino)thianthren-1-yl)-4-morpholino pyridin-2(1H)-one] | < 100 nM | 100 to 500 nM | 
Cc1nccc(C(C)Nc2ccc3c(c2)Sc2cccc(-c4cc(N5CCOCC5)cc(=O)[nH]4)c2S3)n1 (single isomer, unassigned) [Example 1-12-141-1, 6-(7-((1-(2-methylpyrimidin-4-yl)ethyl)amino)thianthren-1-yl)-4-morpholinopyridin-2(1H)-one] | < 100 nM | 100 to 500 nM | 
Cc1cccc(C(Nc2ccc3c(c2)Sc2cccc(-c4cc(N5CCOCC5)cc(=O)[nH]4)c2S3)C2CCCN(C)C2)n1 (single isomer, unassigned) [Example 1-22-4, 6-(7-(((1-Methylpiperidin-3-yl)(6-methylpyridin-2-yl)methyl)amino)thianthren-1-yl)-4-morpholino pyridin-2 (1H)-one] | < 100 nM | < 100 nM | 
COCC(Nc1ccc2c(c1)Sc1cccc(-c3cc(N4CCOCC4)cc(=O)[nH]3)c1S2)c1ccc(C)cn1 (stereo not shown) [Example 1-12-100, 6-(7-((2-Methoxy-1-(5-methylpyridin-2-yl)ethyl)amino)thianthren-1-yl)-4-morpholino pyridin-2(1H)-one] | < 100 nM | < 100 nM | 
Cc1cnc(C(C)Nc2ccc3c(c2)Sc2cccc(-c4cc(N5CCOCC5)cc(=O)[nH]4)c2S3)cn1 (single isomer, unassigned) [Example 1-12-137-2, 6-(7-((1-(5-methylpyrazin-2-yl)ethyl)amino)thianthren-1-yl)-4-morpholinopyridin-2(1H)-one] | < 100 nM |  | 100 to 500 nM
Cc1cccc(C(CO)Nc2ccc3c(c2)Sc2cccc(-c4cc(N5CCOCC5)cc(=O)[nH]4)c2S3)n1 (single isomer, unassigned) [Example 1-12-140-2, 6-(7-((2-hydroxy-1-(6-methylpyridin-2-yl)ethyl)amino)thianthren-1-yl)-4-morpholinopyridin-2(1H)-one] | < 100 nM | < 100 nM | 
Cc1ccnc(C(CO)Nc2ccc3c(c2)Sc2cccc(-c4cc(N5CCOCC5)cc(=O)[nH]4)c2S3)n1 (stereo not shown) [Example 1-12-90, 6-(7-((2-Hydroxy-1-(4-methylpyrimidin-2-yl)ethyl)amino)thianthren-1-yl)-4-morpholino pyridin-2(1H)-one] | < 100 nM | 100 to 500 nM | 
COCCOCC(Nc1ccc2c(c1)Sc1cccc(-c3cc(N4CCOCC4)cc(=O)[nH]3)c1S2)c1ccc(C)cn1 (stereo not shown) [Example 1-12-102, 6-(7-((2-(2-Methoxyethoxy)-1-(5-methylpyridin-2-yl)ethyl)amino)thianthren-1-yl)-4-morpholino pyridin-2(1H)-one] | < 100 nM | 100 to 500 nM | 
COc1cnc(CNc2ccc3c(c2)Cc2cccc(-c4cc(N5CCOCC5)cc(=O)[nH]4)c2O3)cn1 [Example 2-2-36, 6-(7-(((5-Methoxypyrazin-2-yl)methyl)amino)-9H-xanthen-4-yl)-4-morpholino pyridin-2(1H)-one] | 100 to 500 nM | 500 to 2000 nM | 
O=c1cc(N2CCOCC2)cc(-c2cccc3c2Oc2ccc(NCc4ccc(Cl)nc4)cc2C3)[nH]1 [Example 2-2-3] | 100 to 500 nM | 100 to 500 nM | 
N#Cc1cccc(CNc2ccc3c(c2)Sc2cccc(-c4cc(N5CCOCC5)cc(=O)[nH]4)c2O3)n1 [Example 4-4-25, 6-(((6-(4-Morpholino-6-oxo-1,6-dihydropyridin-2-yl)phenoxathiin-2-yl)amino)methyl)picolinonitrile] | < 100 nM | 500 to 2000 nM | 
O=c1cc(N2CCOCC2)cc(-c2cccc3c2Sc2ccc(NCCN4CCCCC4)cc2S3)[nH]1 [Example 1-10-10] | < 100 nM | 100 to 500 nM | 
O=c1cc(N2CCOCC2)cc(-c2cccc3c2Sc2ccc(NC4CCCC4N4CCOCC4)cc2S3)[nH]1 (racemic) [Example 1-16-1-1, 4-morpholino-6-(7-((2-morpholinocyclopentyl)amino)thianthren-1-yl)pyridin-2(1H)-one] | < 100 nM | < 100 nM | 
COC[C@H](CN1CCOC(C)(C)C1)Nc1ccc2c(c1)Sc1cccc(-c3cc(N4CCOCC4)cc(=O)[nH]3)c1S2 [Example 1-46-9, (S)-6-(7-((1-(2,2-Dimethylmorpholino)-3-methoxypropan-2-yl)amino)thianthren-1-yl)-4-morpholino pyridin-2(1H)-one] | < 100 nM | 100 to 500 nM | 
